Results on 16 compounds are retold here after patent US20180319810A1, “SUBSTITUTED BRIDGED UREA ANALOGS AS SIRTUIN MODULATORS” (GlaxoSmithKline Intellectual Property (No.2) Limited, priority 2014, published 2018).

The experiment has as its target T1, SIRT1 (Homo sapiens, UniProt Q96EB6).
T1 sequence (Q96EB6 1-747): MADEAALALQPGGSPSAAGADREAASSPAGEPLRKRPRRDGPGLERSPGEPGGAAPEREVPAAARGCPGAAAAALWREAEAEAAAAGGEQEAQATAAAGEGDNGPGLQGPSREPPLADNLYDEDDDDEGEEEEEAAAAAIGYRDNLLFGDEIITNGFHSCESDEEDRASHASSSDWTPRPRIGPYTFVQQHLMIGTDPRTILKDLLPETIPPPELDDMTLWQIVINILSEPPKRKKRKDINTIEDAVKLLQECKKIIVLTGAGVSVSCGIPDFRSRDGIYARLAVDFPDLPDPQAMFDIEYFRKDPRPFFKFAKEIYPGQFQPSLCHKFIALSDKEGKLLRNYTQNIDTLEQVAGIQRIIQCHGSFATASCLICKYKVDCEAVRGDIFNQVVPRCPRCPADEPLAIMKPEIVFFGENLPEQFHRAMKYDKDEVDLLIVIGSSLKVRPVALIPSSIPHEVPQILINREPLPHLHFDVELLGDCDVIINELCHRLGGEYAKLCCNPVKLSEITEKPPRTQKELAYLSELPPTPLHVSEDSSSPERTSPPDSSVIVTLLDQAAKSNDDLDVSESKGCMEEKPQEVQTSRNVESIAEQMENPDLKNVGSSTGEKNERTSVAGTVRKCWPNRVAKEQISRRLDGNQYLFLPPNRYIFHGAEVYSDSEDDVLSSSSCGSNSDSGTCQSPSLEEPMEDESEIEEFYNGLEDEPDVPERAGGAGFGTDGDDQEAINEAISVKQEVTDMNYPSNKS
Nature of the experiment: Trp mass spectrometry assay of SIRT1 activation. Format: biochemical. The note with it: Trp peptide Ac-R-H-K-K(Ac)-W-NH2 0.5 μM, 120 μM βNAD+, 10 nM SIRT1, 25 min, 25° C.
With `Cc1ncc(-c2ccnc(NC(=O)N3c4nc(C(=O)N[C@H](C)C(F)(F)F)ncc4N4CCC[C@H]3C4)c2)o1` [Example 70, (9S)—N10-(4-(2-methyloxazol-5-yl)pyridin-2-yl)-N2-((R)-1,1,1-trifluoropropan-2-yl)-8,9-dihydro-6H-5,9-methanopyrimido[4,5-b][1,4]diazocine-2,10(7H)-dicarboxamide], the “TRP Activity (EC1.5, concentration of compound required to increase SIRT1 activity by 50% over control)” value is reported as “A (EC1.5<1 μM)” and the “TRP MAX RESP (percent maximum fold activation relative to control)” value is listed as “A (Fold activation ≥150%)”.

As to `Cl.O=C(Nc1ccnc(OC[C@H](O)CO)c1)N1c2nc(-c3cccc(C(F)(F)F)c3)ncc2N2CC[C@H]1C2` [Example 34, (8S)—N-(2-((R)-2,3-dihydroxypropoxy)pyridin-4-yl)-2-(3-(trifluoromethyl)phenyl)-7,8-dihydro-5,8-methanopyrimido[4,5-b][1,4]diazepine-9(6H)-carboxamide hydrochloride], the “TRP Activity (EC1.5, concentration of compound required to increase SIRT1 activity by 50% over control)” value was “A (EC1.5<1 μM)” and the “TRP MAX RESP (percent maximum fold activation relative to control)” value is “A (Fold activation ≥150%)”.

Turning to `O=C(Nc1ccc(OC[C@H](O)CO)nc1)N1c2nc(-c3cccc(C(F)(F)F)c3)ncc2N2CCC[C@H]1C2` [Example 82, (9S)—N-(6-((R)-2,3-dihydroxypropoxy)pyridin-3-yl)-2-(3-(trifluoromethyl)phenyl)-8,9-dihydro-6H-5,9-methanopyrimido[4,5-b][1,4]diazocine-10(7H)-carboxamide], the “TRP Activity (EC1.5, concentration of compound required to increase SIRT1 activity by 50% over control)” value is on record as “A (EC1.5<1 μM)” and the “TRP MAX RESP (percent maximum fold activation relative to control)” value is recorded as “A (Fold activation ≥150%)”.

In the case of `Cc1nc(-c2cccc(C(F)(F)F)c2)nc2c1N1CCC[C@@H](C1)N2C(=O)Nc1cnc(OC[C@H](O)CO)nc1` [Example 106, (9S)—N-(2-((R)-2,3-dihydroxypropoxy)pyrimidin-5-yl)-4-methyl-2-(3-(trifluoromethyl)phenyl)-8,9-dihydro-6H-5,9-methanopyrimido[4,5-b][1,4]diazocine-10(7H)-carboxamide], the “TRP Activity (EC1.5, concentration of compound required to increase SIRT1 activity by 50% over control)” value is listed as “A (EC1.5<1 μM)” and the “TRP MAX RESP (percent maximum fold activation relative to control)” value is “A (Fold activation ≥150%)”.

In the case of `O=C(Nc1ccc(OC[C@H](O)CO)nc1)N1c2nc(-c3cccc(C(F)(F)F)c3)ncc2N2CC[C@H]1C2` [Example 39, (8S)—N-(6-((R)-2,3-dihydroxypropoxy)pyridin-3-yl)-2-(3-(trifluoromethyl)phenyl)-7,8-dihydro-5,8-methanopyrimido[4,5-b][1,4]diazepine-9(6H)-carboxamide], the “TRP Activity (EC1.5, concentration of compound required to increase SIRT1 activity by 50% over control)” value is reported as “A (EC1.5<1 μM)” and the “TRP MAX RESP (percent maximum fold activation relative to control)” value was “A (Fold activation ≥150%)”.

Turning to `Cn1cccc(NC(=O)N2c3nc(C(=O)NCC(F)(F)F)ncc3N3CC[C@H]2C3)c1=O` [Example 2, (8S)—N9-(1-methyl-2-oxo-1,2-dihydropyridin-3-yl)-N2-(2,2,2-trifluoroethyl)-7,8-dihydro-5,8-methanopyrimido[4,5-b][1,4]diazepine-2,9(6H)-dicarboxamide], the “TRP Activity (EC1.5, concentration of compound required to increase SIRT1 activity by 50% over control)” value was “B (EC1.5 1-25 μM)” and the “TRP MAX RESP (percent maximum fold activation relative to control)” value is listed as “A (Fold activation ≥150%)”.

For the compound `Cc1ncc(-c2ccnc(NC(=O)N3c4nc(C(=O)N[C@H](C)C(F)(F)F)nc(C)c4N4CCC[C@H]3C4)c2)o1` [Example 71, (9S)-4-methyl-N10-(4-(2-methyloxazol-5-yl)pyridin-2-yl)-N2-((R)-1,1,1-trifluoropropan-2-yl)-8,9-dihydro-6H-5,9-methanopyrimido[4,5-b][1,4]diazocine-2,10(7H)-dicarboxamide], the “TRP Activity (EC1.5, concentration of compound required to increase SIRT1 activity by 50% over control)” value is “A (EC1.5<1 μM)” and the “TRP MAX RESP (percent maximum fold activation relative to control)” value is listed as “A (Fold activation ≥150%)”.

`O=C(Nc1ccc(OC[C@H](O)CO)cn1)N1c2nc(-c3cccc(C(F)(F)F)c3)ncc2N2CC[C@H]1C2` [Example 40, (8S)—N-(5-((R)-2,3-dihydroxypropoxy)pyridin-2-yl)-2-(3-(trifluoromethyl)phenyl)-7,8-dihydro-5,8-methanopyrimido[4,5-b][1,4]diazepine-9(6H)-carboxamide]: the “TRP Activity (EC1.5, concentration of compound required to increase SIRT1 activity by 50% over control)” value is on record as “A (EC1.5<1 μM)” and the “TRP MAX RESP (percent maximum fold activation relative to control)” value is “A (Fold activation ≥150%)”.

Take `O=C(Nc1cnc(OC[C@@H](O)CO)nc1)N1c2nc(-c3cccc(C(F)(F)F)c3)ncc2N2CC[C@H]1C2` [Example 53, (8S)—N-(2-((S)-2,3-dihydroxypropoxy)pyrimidin-5-yl)-2-(3-(trifluoromethyl)phenyl)-7,8-dihydro-5,8-methanopyrimido[4,5-b][1,4]diazepine-9(6H)-carboxamide]: the “TRP Activity (EC1.5, concentration of compound required to increase SIRT1 activity by 50% over control)” value is on record as “B (EC1.5 1-25 μM)” and the “TRP MAX RESP (percent maximum fold activation relative to control)” value was “A (Fold activation ≥150%)”.

With `O=C(Nc1cnc(OC[C@H](O)CO)cn1)N1c2nc(-c3cccc(C(F)(F)F)c3)ncc2N2CCC[C@H]1C2` [Example 97, (9S)—N-(5-((R)-2,3-dihydroxypropoxy)pyrazin-2-yl)-2-(3-(trifluoromethyl)phenyl)-8,9-dihydro-6H-5,9-methanopyrimido[4,5-b][1,4]diazocine-10(7H)-carboxamide], the “TRP Activity (EC1.5, concentration of compound required to increase SIRT1 activity by 50% over control)” value is recorded as “A (EC1.5<1 μM)” and the “TRP MAX RESP (percent maximum fold activation relative to control)” value is “A (Fold activation ≥150%)”.

Consider `Cc1ccc2c(NC(=O)N3c4nc(C(=O)N[C@H](C)C(F)(F)F)ncc4N4CCC[C@H]3C4)n[nH]c2n1` [Example 72, (9S)—N10-(6-methyl-1H-pyrazolo[3,4-b]pyridin-3-yl)-N2-((R)-1,1,1-trifluoropropan-2-yl)-8,9-dihydro-6H-5,9-methanopyrimido[4,5-b][1,4]diazocine-2,10(7H)-dicarboxamide], for which the “TRP Activity (EC1.5, concentration of compound required to increase SIRT1 activity by 50% over control)” value is “A (EC1.5<1 μM)” and the “TRP MAX RESP (percent maximum fold activation relative to control)” value is on record as “A (Fold activation ≥150%)”.

As for `O=C(Nc1nccc(OC[C@@H](O)CO)n1)N1c2nc(-c3cccc(C(F)(F)F)c3)ncc2N2CCC[C@H]1C2` [Example 103, (9S)—N-(4-((S)-2,3-dihydroxypropoxy)pyrimidin-2-yl)-2-(3-(trifluoromethyl)phenyl)-8,9-dihydro-6H-5,9-methanopyrimido[4,5-b][1,4]diazocine-10(7H)-carboxamide], the “TRP Activity (EC1.5, concentration of compound required to increase SIRT1 activity by 50% over control)” value is reported as “B (EC1.5 1-25 μM)” and the “TRP MAX RESP (percent maximum fold activation relative to control)” value was “A (Fold activation ≥150%)”.

In the case of `O=C(NC1CCC1)N1c2nc(-c3cccc(C(F)(F)F)c3)ncc2N2CC[C@H]1C2` [Example 20, (8S)—N-cyclobutyl-2-(3-(trifluoromethyl)phenyl)-7,8-dihydro-5,8-methanopyrimido[4,5-b][1,4]diazepine-9(6H)-carboxamide], the “TRP Activity (EC1.5, concentration of compound required to increase SIRT1 activity by 50% over control)” value was “A (EC1.5<1 μM)” and the “TRP MAX RESP (percent maximum fold activation relative to control)” value is “A (Fold activation ≥150%)”.

For the compound `O=C(Nc1cccc(OC[C@H](O)CO)n1)N1c2nc(-c3cccc(C(F)(F)F)c3)ncc2N2CC[C@H]1C2` [Example 22, (8S)—N-(6-((R)-2,3-dihydroxypropoxy)pyridin-2-yl)-2-(3-(trifluoromethyl)phenyl)-7,8-dihydro-5,8-methanopyrimido[4,5-b][1,4]diazepine-9(6H)-carboxamide], the “TRP Activity (EC1.5, concentration of compound required to increase SIRT1 activity by 50% over control)” value was “A (EC1.5<1 μM)” and the “TRP MAX RESP (percent maximum fold activation relative to control)” value is on record as “A (Fold activation ≥150%)”.

For the compound `O=C(Nc1cnc(OC[C@H](O)CO)nc1)N1c2nc(-c3cccc(C(F)(F)F)c3)ncc2N2CCC[C@H]1C2` [Example 104, (9S)—N-(2-((R)-2,3-dihydroxypropoxy)pyrimidin-5-yl)-2-(3-(trifluoromethyl)phenyl)-8,9-dihydro-6H-5,9-methanopyrimido[4,5-b][1,4]diazocine-10(7H)-carboxamide], the “TRP Activity (EC1.5, concentration of compound required to increase SIRT1 activity by 50% over control)” value was “A (EC1.5<1 μM)” and the “TRP MAX RESP (percent maximum fold activation relative to control)” value was “A (Fold activation ≥150%)”.

As to `Cc1nc(-c2cccc(C(F)(F)F)c2)nc2c1N1CC[C@@H](C1)N2C(=O)Nc1cncc(OC[C@H](O)CO)c1` [Example 45, (8S)—N-(5-((R)-2,3-dihydroxypropoxy)pyridin-3-yl)-4-methyl-2-(3-(trifluoromethyl)phenyl)-7,8-dihydro-5,8-methanopyrimido[4,5-b][1,4]diazepine-9(6H)-carboxamide], the “TRP Activity (EC1.5, concentration of compound required to increase SIRT1 activity by 50% over control)” value is listed as “A (EC1.5<1 μM)” and the “TRP MAX RESP (percent maximum fold activation relative to control)” value is “A (Fold activation ≥150%)”.
